Measurements reported in patent US11738065B2, “Polypeptides and analogues thereof for use in the treatment of diabetes and bone disorders” (UNIVERSITY OF ULSTER, priority 2015, dated 2023).
Where no end group is shown, it is not given here. [ ]: non-standard residue; d: D form.

What was measured:
high fat fed mice [1] = assay: 42 day once daily study in high fat fed mice (body weight, composition, food intake, non-fasting glucose); type: in vivo; conditions: 25 nmol/kg once daily, 42 days
Source text: (§1) FIG. 10 illustrates body weight as measured for 3 days before and 42 days during (indicated by black horizontal bar) once daily treatment with saline vehicle (0.9% w/v NaCl), GIP/Xenin hybrid, GIP/Xenin hybrid Asp and GIP/Xenin hybrid Glu (each peptide at 25 nmol/kg bw). Values represent means±SEM for 5 mice;
FIG. 11A-11B illustrate (FIG. 11A) % Fat mass and (FIG. 11B) % Lean mass as measured by DEXA scanning in high fat fed mice following 42 days treatment with GIP/Xenin hybrid, GIP/Xenin hybrid Asp and GIP/Xenin hybrid Glu. Values represent means±SEM for 3-5 mice;
as §1, with “12” for “10”, “cumulative energy intake” for “body weight”, “days” for “days during”, “bar) during” for “bar)”, “3-5 mice. ^ΔP<0.05, ^ΔΔP<0.01, ^ΔΔΔP<0.001 compared to saline control;” for “5 mice;”
as §1, with “13” for “10”, “non fasting blood glucose” for “body weight”, “mice; […]” for “mice;”

high fat fed mice [2] = assay: DEXA bone mineral density and content after 42 days treatment; type: in vivo; conditions: P<0.05 and P<0.01 respectively
Experimental: The DEXA (dual energy X-ray absorptiometry) analysis [Lunar PIXImus, Inside Outside Sales] was performed on unconscious mice and the whole body was scanned. Various parameters like bone mineral density (BMD), bone mineral content (BMC), lean mass, fat mass and percentage of total fat were measured according to the manufacturer's instructions.

SaOS-2 cells [3] = assay: cAMP production in SaOS-2 cells; type: cell-based, Human; conditions: 60 min, 200 μM IBMX
Experimental: SaOS-2 cells were seeded at a density of 5e4 cells in 96-well plates. Cells were cultured in α-MEM 1× media supplemented with 10% FBS for 24 hours in order to allow attachment to the plate. Before the experiment, cells were washed with Hank's Balanced Salt Solution (HBSS). Cells were then incubated with various concentrations (1e-12-1e-6 M) of test peptides of the invention supplemented with 200 μM of 3-isobutyl-1-methylxanthine (IBMX). Plates were then incubated for 60 minutes at 37° C. Following this step, cells were washed 3 times with 150 μl PBS. Cell lysis was performed with 150 μl cell lysis buffer (R&D Systems) and a freeze (−20° C.)-thaw (37° C.) cycle was carried out. The contents were then collected into 500 μl tubes and centrifuged at 600 rpm for 10 min (4° C.). The supernatant was collected and cAMP was measured using a cAMP assay kit (R&D Systems) according to the manufacturer's instructions. The concentration of cAMP was calculated from a standard curve of cAMP ranging from 0 to 240 pmol/ml.

SaOS-2 cells [4] = assay: IGF-1 release from SaOS-2 cells; type: cell-based, Human; conditions: 1e-12-1e-6 M, 8 hours
Experimental: SaOS-2 cells were seeded at a density of 2e5 cells/well in 6-well plates in 10% FBS containing media. Media were changed 24 hours prior to experimentation with 0.1% FBS. Media was then removed, followed by an addition of 1 ml of test peptides of the invention (1e-12-1e-6 M). Plates were incubated at 37° C. for 8 hours. After incubation, media was collected and IGF-1 released in the supernatant was measured using IGF-1 Immunoassay kit (Quantikine, R&D Systems) according to the manufacturer's instructions. The concentration of IGF-1 in the samples was determined from a standard curve of recombinant human IGF-1 in the range of 0-60 ng/ml.

SaOS-2 cells [5] = assay: TGF-β release from SaOS-2 cells; type: cell-based, Human; conditions: 1e-12-1e-6 M, 8 hours
Experimental: Human osteoblast SaOS-2 cells [sourced from The European Collection of Cell Cultures (ECACC)] were seeded at a density of 2e5 cells/well in 24 well plates [Nunc, Roskilde, Denmark]. The cells were incubated in media [Life Technologies] supplemented with 10% FBS. Before adding test peptides of the invention, the media were changed with fresh 0.1% FBS-containing media 24 h previously. On the day of experimentation, media were removed and 1 ml of respective peptides of the invention GIP/Xenin, GIP/Xenin Asp and GIP/Xenin Glu [(DAla2)GIP/xenin-8-Gln, (DAla2)GIP/xenin-8-Gln(L-Asp), and (DAla2)GIP/xenin-8-Gln(L-Glu) respectively] (1e-12-1e-6 M) were added to each well. The plates were then incubated at 37° C. for a period of 8 hours. After incubation, media was collected and TGF-β released in the supernatant measured using a TGF-β Immunoassay kit (Quantikine, R&D Systems) according to the manufacturer's instructions. The concentration of TGF-β was calculated from a standard curve of recombinant human TGF-β ranging from […].

high fat fed mice [6] = assay: Glucose tolerance test after 42 days treatment; type: in vivo
Experimental: FIG. 14A-14B illustrate tests conducted after once daily treatment with saline, GIP/Xenin hybrid, GIP/Xenin hybrid Asp and GIP/Xenin hybrid Glu for 42 days. (FIG. 14A) Blood glucose before and after i.p injection of glucose (18 mmol/kg bw) alone in 18 hr fasted mice. (FIG. 14B) AUC values for blood glucose for 0-105 min are shown in insets. Values represent means±SEM for 6-7 mice. *P<0.05, **P<0.01 and ***P<0.001 compared to saline control;

high fat fed mice [7] = assay: Microcomputed tomography of tibia trabecular and cortical bone after 42 days treatment; type: in vivo; conditions: microCT
Experimental: The tibia was used to investigate trabecular and cortical bone microstructural morphology by microCT analysis with a Skyscan 1172 microtomograph (Bruker, Kontich, Belgium) equipped with an X-ray tube working at 69 kV/100 μA. The pixel size was fixed at 8.3 μm, the rotation step at 0.25° and exposure was performed with a 0.5-mm aluminum filter. Bone mass and morphometry parameters were calculated with the CTan software (release 1.11.4.2, Bruker). The trabecular parameters were assessed at the volume of interest (VOI), located 1 mm below the growth plate and spanning 2.5 mm in height. Trabecular bone volume (BV/TV, in %), trabecular number (Tb.N, in 1/mm) and trabecular separation (Tb.Sp, in μm) were measured according to guidelines and nomenclature proposed by the American Society for Bone and Mineral Research. Cortical parameters were determined at the midshaft tibia with a lab-made routine using ImageJ. […] (Ma.Ar), cortical area (Ct.Ar), total area (Tt.Ar), cortical thickness (Ct.Th, in μm) and cross-sectional moment of inertia (J in mm4) were also measured according to guidelines and nomenclature on bone histomorphometry proposed by the American Society for Bone and Mineral Research.

high fat fed mice [8] = assay: Three-point bending of bone after 42 days treatment; type: in vivo
Experimental: Femur and tibia bones were extracted at the end of the experiment using a scalpel and fine scissors, soft tissue removed and stored in 70% ethanol. Three-point bending strength was measured with a constant span length of 10 mm. Femurs were positioned horizontally with the anterior surface facing upwards, centered on the support and the pressing force was applied vertically to the midshaft of the bone. Each bone was tested with a loading speed of 2 mm/min until failure with a 90 N load cell. The load-time curve obtained was converted into a load-displacement curve by the MTS testSuite TW software (MTS, Créteil, France). Ultimate load and ultimate displacement were respectively defined as the maximum load and maximum displacement recorded before break-down of the bone. Stiffness was calculated as the slope of the elastic deformation of the bone. The total absorbed energy was defined as the total area under the load-displacement curve and represents the total energy absorbed by the midshaft femur. The yield was defined as the load necessary to initiate the transformation from elastic to plastic deformation. The post-yield energy was defined as the area under the load-displacement curve from yield until failure and represents the energy absorbed by bone during plastic deformation.

high fat fed mice [9] = assay: Insulin tolerance test after 42 days treatment; type: in vivo; conditions: insulin 25 U/kg i.p., non-fasted
Experimental: FIG. 15A-15B illustrate Blood glucose (FIG. 15A) and blood glucose AUC (FIG. 15B) values for 0-105 min (shown in inset) following 42 days treatment with saline, GIP/Xenin hybrid, GIP/Xenin hybrid Asp and GIP/Xenin hybrid Glu (each peptide at 25 nmol/kg bw), and subsequent insulin (25 U/kg bw) injection intraperitoneally (at t=0) in non-fasted mice. Values represent means±SEM for 5 mice. *P<0.05, **P<0.01 and ***P<0.001 compared to saline control;

TYR-(d)ALA-GLU-GLY-THR-PHE-ILE-SER-ASP-TYR-SER-ILE-ALA-MET-HIS-PRO-GLN-GLN-PRO-TRP-ILE-LEU-GLY-ALA-ALA-ASP-ASP-ASP-ASP-ASP-ASP (Y[dA]EGTFISDYSIAMHPQQPWILGAADDDDDD; also: Gln side-chain L-Asp modification; listed as Homo sapiens) [GIP/Xenin Asp]
Body weight, fat and lean mass, food intake (high fat fed mice [1]): no significant change
Tibia bone mineral density (high fat fed mice [2]): reduced
Lowest effective concentration for cAMP production (SaOS-2 cells [3]): 10 nM
IGF-1 release from SaOS-2 cells (SaOS-2 cells [4]): dose-dependently stimulated
TGF-β release from SaOS-2 cells (SaOS-2 cells [5]): dose-dependently stimulated
Blood glucose overall AUC after glucose challenge (high fat fed mice [6]; 0-105 min, glucose 18 mmol/kg): significant (P<0.05) reduction in overall AUC measures
Blood glucose at 30, 60 and 105 min after glucose challenge (high fat fed mice [6]; glucose 18 mmol/kg i.p.): significantly (P<0.01 to P<0.001)

TYR-(d)ALA-GLU-GLY-THR-PHE-ILE-SER-ASP-TYR-SER-ILE-ALA-MET-HIS-PRO-GLN-GLN-PRO-TRP-ILE-LEU-GLY-ALA-ALA-GLU-GLU-GLU-GLU-GLU-GLU (Y[dA]EGTFISDYSIAMHPQQPWILGAAEEEEEE; also: Gln side-chain L-Glu modification; listed as Homo sapiens) [GIP/Xenin Glu]
Body weight, fat and lean mass, food intake (high fat fed mice [1]): no significant change
Cortical bone area, thickness and moment of inertia / structural properties of cortical bone (high fat fed mice [7]): reduced
Tibia bone mineral density (high fat fed mice [2]): reduced
Lowest effective concentration for cAMP production (SaOS-2 cells [3]): 1000 nM
IGF-1 release from SaOS-2 cells (SaOS-2 cells [4]): dose-dependently stimulated
TGF-β release from SaOS-2 cells (SaOS-2 cells [5]): dose-dependently stimulated
Bone ultimate load and stiffness (high fat fed mice [8]): negative effects (P<0.05 to P<0.001)
Blood glucose concentrations after glucose challenge (high fat fed mice [6]; glucose 18 mmol/kg): also reduced blood glucose concentrations, but not as effectively as GIP/Xenin Asp
Hypoglycaemic response to exogenous insulin (high fat fed mice [9]): more pronounced hypoglycaemic response
